Like-named read-outs stand apart in the source and are kept apart here.
Columns and labels:
[1] = target: 5-HT2A (Homo sapiens (Human), UniProt P28223); assay: 5-HT2A agonist (IP1) assay, HEK-293 cells (commercial); type: cell-based; settings: for Emax at 10 µM: HEK293, read-out: % of control agonist maximal response (5-HT2A); for EC50: IP1 agonist assay
Text: (§1) Potency (IC50 and EC50) and efficacy values for hERG, rKOR-CHO, hMOR-CHO, h5-HT2A-HEK, h5-HT2B-CHO, h5-HT2C HEK were obtained by screening the selected compounds via commercially available assay services.

[2] = target: 5-HT2B (Homo sapiens (Human), UniProt P41595); assay: 5-HT2B agonist (IP1) assay, CHO cells (commercial); type: cell-based; settings: for Emax at 10 µM: CHO, read-out: % of control agonist maximal response (5-HT2B); for EC50: IP1 agonist assay
Chain of 5-HT2B (P41595 whole entry): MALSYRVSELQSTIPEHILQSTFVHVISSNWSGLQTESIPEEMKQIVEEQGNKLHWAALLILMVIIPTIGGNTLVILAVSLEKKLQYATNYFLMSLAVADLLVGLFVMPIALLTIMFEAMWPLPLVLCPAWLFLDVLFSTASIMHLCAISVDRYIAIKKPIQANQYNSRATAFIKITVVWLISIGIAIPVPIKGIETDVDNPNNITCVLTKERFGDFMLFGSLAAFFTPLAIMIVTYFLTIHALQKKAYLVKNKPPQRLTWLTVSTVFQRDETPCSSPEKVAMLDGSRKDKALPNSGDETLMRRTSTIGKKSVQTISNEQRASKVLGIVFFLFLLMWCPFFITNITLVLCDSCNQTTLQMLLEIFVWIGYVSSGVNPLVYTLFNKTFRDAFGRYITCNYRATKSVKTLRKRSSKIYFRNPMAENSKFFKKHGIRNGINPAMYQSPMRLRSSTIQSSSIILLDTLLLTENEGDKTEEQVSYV
Text: as §1

[3] = target: 5-HT2C (Homo sapiens (Human), UniProt P28335); assay: 5-HT2C agonist (IP1) assay, HEK-293 cells (commercial); type: cell-based; settings: for Emax at 10 µM: HEK293, read-out: % of control agonist maximal response (5-HT2C); for EC50: IP1 agonist assay
Chain of 5-HT2C (P28335 whole entry, looked up): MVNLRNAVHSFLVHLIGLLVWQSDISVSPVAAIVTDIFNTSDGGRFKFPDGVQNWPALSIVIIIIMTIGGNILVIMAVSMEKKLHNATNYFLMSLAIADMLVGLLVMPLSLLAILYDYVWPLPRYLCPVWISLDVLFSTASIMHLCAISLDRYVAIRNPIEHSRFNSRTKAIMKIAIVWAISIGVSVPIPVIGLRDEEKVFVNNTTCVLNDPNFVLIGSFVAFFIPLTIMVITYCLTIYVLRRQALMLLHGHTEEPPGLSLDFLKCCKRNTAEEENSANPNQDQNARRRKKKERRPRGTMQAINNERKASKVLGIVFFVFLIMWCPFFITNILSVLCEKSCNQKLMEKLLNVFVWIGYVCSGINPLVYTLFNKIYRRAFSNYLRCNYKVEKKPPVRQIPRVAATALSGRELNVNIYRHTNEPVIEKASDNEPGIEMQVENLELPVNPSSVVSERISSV
Text: as §1

[4] = target: hSERT (Homo sapiens (Human), UniProt P31645); assay: hSERT fluorometric screening assay (APP+ uptake, hSERT-HEK cells); type: cell-based; settings: average ± SEM, n ≥ 4; read-out: IC50 SERT [μM ± SEM]
Procedure: (§2) Inhibition assays of transporters (hSERT and rVMAT2) were performed according to the following protocol.
(§3) Stably transfected hSERT-HEK and rVMAT2-HEK cellular cultures were maintained in Dulbecco's Minimal Essential Medium (DMEM) with GlutaMAX (Gibco) with the following additions: 10% (v/v) Fetal Bovine Serum (FBS, Atlanta Biologicals), 100 U/mL Penicillin (Gibco), and 10 μg/mL Streptomycin (Gibco). With regards to the former cell lineage, an additional ingredient, 500 μg/mL Geneticin (G418) (Gibco) was included to preserve the respective transgene.
(§4) For both hSERT and rVMAT2 screening experiments, respective singly transfected cells were seeded at a density of 0.09×10^6 cells/well in poly-D-Lysine (Alamanda Polymers, Inc.) coated white solid-bottom 96-well plates (Costar). Growth was permitted for approximately 44 hours in said aqueous media and at an incubation environment of 37° C. and 5% Carbon Dioxide. At the beginning of the experiment, the cellular growth solution was aspirated, and individual cells were rinsed with 150 μL of 1×Dulbecco's Phosphate Buffered Saline (PBS; HyClone). 63 μL of Experimental Media (consisting of the following contents: DMEM without phenol red but with 4.5 g/L of D-Glucose (Gibco), 1% (v/v) FBS (Atlanta Biologicals), 100 U/mL Penicillin (Gibco), and 10 μg/mL Streptomycin (Gibco)) with 2×tiered concentrations of inhibitor (or DMSO, the vehicle of these experiments) were added to the respective wells. Control inhibitors used in these studies include Imipramine for hSERT experiments, and Reserpine for rVMAT2 experiments (Eiden, L. E. and Weihe, E. 2011; Sette, M. et al. 1983). At the conclusion of the pre-incubation period (60 minutes for hSERT experiments and 30 minutes for rVMAT2 experiments), 63 μL of Experimental Media containing 2×various concentrations of tested inhibitor (or vehicle) along with a specified amount of fluorescent substrate, APP^+ (Karpowicz, R. J. et al 2013) (final concentration: 1.1 μM for hSERT experiments) or FFN206 (Hu, G. et al. 2013) (final concentration: 0.75 μM for rVMAT2 experiments) were added to the present solution contained within the wells. […] A final solution of 120 μL of PBS is finally added to all corresponding wells for cell maintenance before undergoing fluorescence uptake reading by a BioTek H1MF plate reader. […]
(§5) Numerical analysis of the collected experimental data preceded as accordingly. Respective inhibitor values were first subtracted from vehicular values to quantify the respective fluorescence uptake. This metric was then analyzed using the dose-response-inhibitor nonlinear curve fitting model ([inhibitor] vs response (three parameters)) as supplied by GraphPad Prism 8 software. […]

[5] = target: rVMAT2 (Rattus norvegicus (Rat), UniProt Q01827); assay: rVMAT2 fluorometric screening assay (FFN206 uptake, rVMAT2-HEK cells); type: cell-based; settings: average ± SEM, n ≥ 4; read-out: IC50 VMAT2 [μM ± SEM]
Chain of rVMAT2 (Q01827 whole entry): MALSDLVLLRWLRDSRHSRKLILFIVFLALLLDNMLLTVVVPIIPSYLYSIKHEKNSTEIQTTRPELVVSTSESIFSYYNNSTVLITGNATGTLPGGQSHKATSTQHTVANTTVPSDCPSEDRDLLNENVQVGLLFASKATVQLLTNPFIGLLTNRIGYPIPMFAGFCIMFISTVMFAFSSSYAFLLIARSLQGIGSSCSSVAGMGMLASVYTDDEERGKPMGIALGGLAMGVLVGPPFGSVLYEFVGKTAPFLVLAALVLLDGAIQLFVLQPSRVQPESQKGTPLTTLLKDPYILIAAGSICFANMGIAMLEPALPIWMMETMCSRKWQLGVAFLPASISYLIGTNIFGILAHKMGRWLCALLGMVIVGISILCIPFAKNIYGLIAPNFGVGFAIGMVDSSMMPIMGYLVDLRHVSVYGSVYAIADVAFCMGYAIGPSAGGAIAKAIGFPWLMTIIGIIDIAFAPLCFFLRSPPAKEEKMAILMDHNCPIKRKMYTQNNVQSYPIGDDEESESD
Procedure: as §2, §3, §4, §5

[6] = target: KOR (Rattus norvegicus (Rat), UniProt P34975); assay: KOR agonist (cAMP) assay, CHO cells (commercial); type: cell-based; settings: for Emax at 10 µM / Emax: read-out: % of control agonist maximal response (KOR)
Text: as §1

[7] = target: hERG (Homo sapiens (Human), UniProt Q12809); assay: hERG radioligand ([3H]Dofetilide) displacement binding assay (commercial); settings: for IC50: [3H]Dofetilide displacement
Chain of hERG (Q12809 whole entry): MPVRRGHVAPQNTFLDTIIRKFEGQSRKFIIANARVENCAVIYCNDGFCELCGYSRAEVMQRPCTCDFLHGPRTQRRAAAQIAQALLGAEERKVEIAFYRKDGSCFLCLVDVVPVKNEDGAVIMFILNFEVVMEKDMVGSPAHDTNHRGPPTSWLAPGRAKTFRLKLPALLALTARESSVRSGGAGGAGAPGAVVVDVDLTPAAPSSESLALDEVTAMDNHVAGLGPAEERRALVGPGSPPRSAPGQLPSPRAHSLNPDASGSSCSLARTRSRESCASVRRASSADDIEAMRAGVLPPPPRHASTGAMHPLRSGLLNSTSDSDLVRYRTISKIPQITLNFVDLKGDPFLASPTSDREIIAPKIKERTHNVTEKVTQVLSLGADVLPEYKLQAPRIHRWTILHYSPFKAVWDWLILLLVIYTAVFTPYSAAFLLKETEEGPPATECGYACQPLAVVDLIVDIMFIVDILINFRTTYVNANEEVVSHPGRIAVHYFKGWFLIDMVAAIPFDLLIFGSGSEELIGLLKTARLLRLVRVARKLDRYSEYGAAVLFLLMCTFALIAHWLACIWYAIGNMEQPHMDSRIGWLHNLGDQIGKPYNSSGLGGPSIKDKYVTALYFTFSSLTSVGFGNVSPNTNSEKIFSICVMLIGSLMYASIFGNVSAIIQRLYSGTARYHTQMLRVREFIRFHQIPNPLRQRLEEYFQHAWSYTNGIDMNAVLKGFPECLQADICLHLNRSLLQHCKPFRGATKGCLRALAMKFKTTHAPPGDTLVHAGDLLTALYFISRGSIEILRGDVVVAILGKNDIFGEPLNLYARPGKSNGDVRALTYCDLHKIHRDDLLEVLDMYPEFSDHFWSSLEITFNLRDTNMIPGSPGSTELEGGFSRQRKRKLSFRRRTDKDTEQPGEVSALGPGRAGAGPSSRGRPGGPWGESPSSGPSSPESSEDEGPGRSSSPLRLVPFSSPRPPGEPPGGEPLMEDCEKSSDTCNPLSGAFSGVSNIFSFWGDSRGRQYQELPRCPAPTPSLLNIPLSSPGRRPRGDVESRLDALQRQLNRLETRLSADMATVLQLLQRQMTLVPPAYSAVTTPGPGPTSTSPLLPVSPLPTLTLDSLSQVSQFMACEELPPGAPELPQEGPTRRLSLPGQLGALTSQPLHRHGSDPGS
Text: as §1

[8] = target: mouse MOR (mMOR) (Mus musculus (Mouse), UniProt P42866); assay: G-protein BRET functional opioid assay, MOR; type: cell-based; settings: for Emax: normalized to DAMGO, read-out: % of control agonist maximal response (MOR)
Chain of mouse MOR (mMOR) (P42866 whole entry, looked up): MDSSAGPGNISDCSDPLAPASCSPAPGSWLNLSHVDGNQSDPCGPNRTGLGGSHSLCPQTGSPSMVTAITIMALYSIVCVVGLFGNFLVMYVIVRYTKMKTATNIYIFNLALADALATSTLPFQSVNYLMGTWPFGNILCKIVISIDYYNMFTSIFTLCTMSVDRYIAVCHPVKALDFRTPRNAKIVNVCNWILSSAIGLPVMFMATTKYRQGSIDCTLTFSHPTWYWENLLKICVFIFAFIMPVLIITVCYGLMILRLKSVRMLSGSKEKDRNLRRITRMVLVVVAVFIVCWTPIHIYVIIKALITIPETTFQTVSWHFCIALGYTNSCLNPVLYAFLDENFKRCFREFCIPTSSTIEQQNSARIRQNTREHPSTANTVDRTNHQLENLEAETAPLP
Procedure: (§6) HEK-293T cells were obtained from the American Type Culture Collection (Rockville, MD) and were cultured in a 5% CO2 atmosphere at 37° C. in Dulbecco's Modified Eagle Medium (high glucose #11965; Life Technologies Corp.; Grand Island, NY) supplemented with 10% FBS (Premium Select, Atlanta Biologicals; Atlanta, GA), 100 U/mL penicillin, and 100 μg/mL streptomycin (#15140, Life Technologies). DNA Constructs: The mouse MOR (mMOR), the mouse DOR (mDOR) and the rat KOR (rKOR) were provided by Dr Lakshmi Devi at Mount Sinai School of Medicine. The G proteins used included untagged GαoB with Renilla luciferase 8 (RLuc8) inserted at position 91 (GαoB-RLuc8); Gβ1 (β1); Gγ2 which was fused to the full-length mVenus at its N-terminus via the amino acid linker GSAGT (mVenus-γ2). All constructs were sequence confirmed prior to use in experiments.
(§7) Transfection: The following cDNA amounts were transfected into HEK-293T cells (5×10^6 cells/plate) in 10-cm dishes using polyethylenimine (PEI) in a 1:1 ratio (diluted in Opti-MEM, Life Technologies): 2.5 μg MOR/DOR/KOR, 0.125 μg GαoBRLuc8, 6.25 μg (1, 6.25 μg mVenus-γ2. Cells were maintained in the HEK-293T media described above. After 24 hours the media was changed, and the experiment was performed 24 hours later (48 hours after transfection). BRET: Transfected cells were dissociated and re-suspended in phosphate-buffered saline (PBS). Approximately 200,000 cells/well were added to a black-framed, white-well, 96-well plate (#60050; Perkin Elmer; Waltham, MA). The microplate was centrifuged and the cells were resuspended in PBS. After 5 minutes, 5 μM of the luciferase substrate coelenterazine H was added to each well. After 5 minutes, ligands were added and the BRET signal was measured 5 minutes later on a PHERAstar FS plate reader. The BRET signal was quantified by calculating the ratio of the light emitted by the energy acceptor, mVenus (510-540 nm), over the light emitted by the energy donor, RLuc8 (485 nm). This drug-induced BRET signal was normalized using the Emax of a known agonist (DAMGO, DPDPE or U-50,488) as the maximal response at MOR/DOR/KOR. Data were analyzed using the dose-response-stimulation nonlinear curve fitting model (log[agonist] vs. response (three parameters)).

[9] = target: mouse DOR (mDOR) (Mus musculus (Mouse), UniProt P32300); assay: G-protein BRET functional opioid assay, DOR; type: cell-based; settings: for Emax: normalized to DPDPE, read-out: % of control agonist maximal response (DOR)
Procedure: as §6, §7

[10] = target: rat KOR (rKOR) (Rattus norvegicus (Rat), UniProt P34975); assay: G-protein BRET functional opioid assay, KOR; type: cell-based; settings: for Emax: normalized to U-50,488, read-out: % of control agonist maximal response (KOR)
Procedure: as §6, §7

[11] = Table 2, cAMP agonist assay, rat KOR, CHO

## Oc1ccc2oc3c(c2c1)CCNCC3 [drawing 169]
[1]; Table 4
  Emax at 10 µM: 72%
  EC50: 600 nM
[2]; Table 4
  Emax at 10 µM: 19%
  EC50: > 10 µM
[3]; Table 4
  Emax at 10 µM: 93%
  EC50: 100 nM

## CC1Cc2oc3ccc(O)cc3c2CCN1 (stereo not drawn) [drawing 170]
[1]; Table 4
  Emax at 10 µM: 45%
  EC50: 1900 nM
[3]; Table 4
  Emax at 10 µM: 86%
  EC50: 400 nM

## c1ccc2c3c(oc2c1)CCNCC3 [drawing 165]
[4]
  IC50: 0.45 ± 0.06 µM
[5]
  IC50: 1.4 ± 0.23 µM

## c1ccc2c3c(oc2c1)CCCNC3 [drawing 167]
[4]
  IC50: 11 ± 2.9 µM
[5]
  IC50: 0.061 ± 0.01 µM

## CN1CCCc2oc3ccccc3c2C1 [drawing 168]
[4]
  IC50: 7.1 ± 2.3 µM
[5]
  IC50: 15 ± 4.6 µM

## c1ccc2c3c(oc2c1)CCNCC3 [drawing 161]
[6]; CHO, Table 2
  Emax at 10 µM: 36%
[6]; [11]
  EC50: ~1.2 µM
[1]; Table 2
  Emax at 10 µM: 77%
  EC50: ~1000 nM
[2]; Table 2
  Emax at 10 µM: 20%
  EC50: > 10 µM
[3]; Table 2
  Emax at 10 µM: 90%
  EC50: < 100 nM

## CN1CCCc2oc3ccccc3c2C1 [drawing 164]
[6]; CHO, Table 2
  Emax at 10 µM: 47%
[6]; [11]
  EC50: ~3 µM
[1]; Table 2
  Emax at 10 µM: 4%
  EC50: > 10000 nM
[2]; Table 2
  Emax at 10 µM: 3%
  EC50: > 10 µM
[3]; Table 2
  Emax at 10 µM: 44%
  EC50: ~14000 nM

## Oc1ccc2oc3c(c2c1)CCN1CCCC3C1 (stereo not drawn) [drawing 171]
[7]; Table 4
  IC50: ~60 µM
[7]; human, HEK-293 cells expressing hERG, probe [3H]Dofetilide, Table 4, efficacy at 30 μM, read-out: % inhibition of control specific binding (hERG)
  inhibition at 30 µM: 38%
[1]; Table 4
  Emax at 10 µM: 1%
  EC50: > 10000 nM
[2]; Table 4
  Emax at 10 µM: 5%
  EC50: 0.4 µM
[3]; Table 4
  Emax at 10 µM: < 0%
  EC50: > 10000 nM

## c1ccc2c3c(oc2c1)CCCNC3 [drawing 163]
[6]; CHO, Table 2
  Emax at 10 µM: 45%
[6]; [11]
  EC50: ~4.4 µM
[1]; Table 2
  Emax at 10 µM: 26%
  EC50: ~60000 nM
[2]; Table 2
  Emax at 10 µM: 22%
  EC50: > 10 µM
[3]; Table 2
  Emax at 10 µM: 78%
  EC50: ~1300 nM

## CN1CCc2oc3ccccc3c2CC1 [drawing 162]
[7]; Table 2, HEK-293
  IC50: > 10 µM
[7]; human, HEK-293 cells expressing hERG, probe [3H]Dofetilide, Table 2, at 10 μM, read-out: % inhibition of control specific binding (hERG)
  inhibition at 10 µM: 11%
[6]; CHO, Table 2
  Emax at 10 µM: 36%
[6]; [11]
  EC50: ~4.2 µM
[1]; Table 2
  Emax at 10 µM: 26%
  EC50: > 10000 nM
[2]; Table 2
  Emax at 10 µM: 4%
  EC50: > 10 µM
[3]; Table 2
  Emax at 10 µM: 99%
  EC50: ~200 nM

## CN1CCc2oc3ccccc3c2CC1 [drawing 166]
[4]
  IC50: 1.4 ± 0.3 µM
[5]
  IC50: 4.9 ± 0.94 µM

## CC1Cc2oc3ccc(O)cc3c2CCN1C (stereo not drawn)
[8]
  EC50: 320 nM
  Emax: 46%
[9]
  EC50: 1200 nM
  Emax: 66%
[10]
  EC50: 79 nM
  Emax: 53%

## CC1Cc2oc3ccc(O)cc3c2CCN1 (stereo not drawn) [drawing 173]
[6]; CHO, Table 5, CAMP Assay
  Emax: 96%
[6]; Table 5, CAMP Assay
  EC50: 0.06 µM
[8]
  EC50: 200 nM
  Emax: 16%
[9]
  EC50: 620 nM
  Emax: 45%
[10]
  EC50: 130 nM
  Emax: 36%

## Oc1ccc2oc3c(c2c1)CCNCC3 [drawing 172]
[6]; CHO, Table 5, CAMP Assay
  Emax at 10 µM: < 0%
[6]; Table 5, CAMP Assay
  EC50: > 10 µM

## Oc1ccc2oc3c(c2c1)CCN1CCCC3C1 (stereo not drawn) [drawing 175]
[6]; CHO, Table 5, CAMP Assay
  Emax: 91%
[6]; Table 5, CAMP Assay
  EC50: 0.05 µM
[8]
  EC50: 110 nM
  Emax: 44%
[9]
  EC50: 120 nM
  Emax: 55%
[10]
  EC50: 140 nM
  Emax: 30%

— patent publication US20230382919A1, “OXA- IBOGAINE INSPIRED ANALOGUES FOR TREATMENT OF NEUROLOGICAL AND PSYCHIATRIC DISORDERS” (The Trustees of Columbia University in the City of New York, priority 2021, published 2023)
